From US20230017266A1, “Cyclooxygenase-2 Inhibition for the Treatment of SAA-high Asthma” (THE USA, AS REPRESENTED BY THE SECRETARY, DEPT. OF HEALTH …, priority 2019, published 2023)

How the values were obtained:
PTGS2 mRNA = PTGS2 mRNA levels in CD14+ monocytes cultured with HDL+SAA1 (qRT-PCR); assay type: cell-based, human; conditions: 24 h
Procedure: Quantitative RT-PCR (qRT-PCR). Total RNA was purified using the Direct-Zol™ RNA MiniPrep kit and total RNA (100 ng) was reverse transcribed into cDNA using the High-Capacity cDNA Reverse Transcription Kit (Applied Biosystems, Foster City, Calif.). Polymerase chain reactions (PCR) were performed on duplicate cDNA samples using TaqMan Universal PCR Master Mix, FAM-MGB dye-labeled Taqman® PTGS2 probe (Assay ID Hs00153133_m1, catalog #4331182), and a 7900 Real Time PCR System running Sequence Detector version 2.4 software, all from Applied Biosystems (Foster City, Calif.). Gene expression was quantified relative to expression of 18S rRNA using the control sample as a calibrator to calculate the difference in Ct values (ΔΔCt) and presented as relative mRNA expression. For quantification of miR-155-5p expression, miRNA present in total RNA (10 ng) was converted to cDNA using the microRNA cDNA Reverse Transcription kit (Applied Biosystems, Foster City, Calif.). Polymerase chain reaction (PCR) was performed on duplicate cDNA samples using TaqMan Universal PCR Master Mix, Taqman® MicroRNA Assay for has-miR-155-5p (Assay ID #002623, catalog #4427975), and a 7900HT Fast Real-Time PCR System running Sequence Detector version 2.4 software (ThermoFisher Scientific, Waltham, Mass.). miR-155-5p expression was quantified relative to expression of U6 snRNA using the control sample as calibrator to calculate the difference in Ct values (ΔΔCt) and presented as relative mRNA expression.
miR-155 Inhibition. CD14+ monocytes were suspended in 4D human monocyte Nucleofector™ solution (Amaxa™ P3 Primary Cell 4D-Nucleofector™ X kit, catalog #V4XP-3024, Lonza, Walkersville, Md.) to a final concentration of 2×10^6 cells/100 […] at room temperature. […] CD14^+ monocytes were plated at a density of 4×10^4 cells/well in a 96-well plate to collect culture media for cytokine quantification and the remaining cells were plated in a 24-well plate to isolate total RNA for qRT-PCR. After 72 h, cytokine secretion was quantified by ELISA and mRNA levels were quantified by qRT-PCR.

THP-1 monocytes = assay: Cytokine secretion by THP-1 monocytes stimulated with endogenous SAA-high HDL; assay type: cell-based, human; conditions: pre-treated 1 h; for ability of endogenous SAA-high HDL to induce cytokine secretion: SAA-high HDL 24 h
Procedure: HDL Isolation and Analysis. HDL was isolated from plasma by size-exclusion chromatography using two Superose 6 columns in series on an Akta FPLC system (GE Healthcare Life Sciences, Pittsburgh, Pa.), as previously described. FPLC fractions were assayed for cholesterol content (Cholesterol E, catalog #996021611, FUJIFILM Wako Diagnostics USA, Mountain View, Calif.) to identify HDL fractions, which were pooled and concentrated using a 10-kDa exclusion filter (Amicon Ultra Centrifuge Filters, Millipore, Darmstadt, Germany). The content of SAA in purified HDL was quantified using the human SAA ELISA kit, while APOA1 was quantified using the human APOA1 ELISA development kit (Mabtech, Nacka Strand, Sweden). THP-1 monocytes (American Type Culture Collection, Manassas, Va.) were treated with HDL from SAA-high asthmatics (n=16), as well as HDL from asthmatics with the lowest SAA levels (n=16), and the quantity of […], IL-6, TNF-α, and IL-10 secreted into culture medium over 24 h was assayed using Human DuoSet ELISA kits (R&D Systems, Minneapolis, Minn.) and data were acquired using a SpectraMax M2 spectrophotometer (Molecular Devices, San Jose, Calif.).
Stimulation of THP-1 monocytes with endogenous HDL from SAA-high asthmatics and suppression of cytokine secretion were further studied. HDL (4 μg of protein/ml) isolated from plasma from a SAA-high asthmatic (SAA-high HDL) and from a healthy non-asthmatic subject (Normal HDL) were used to stimulate THP-1 monocytes for 24 h. THP-1 monocytes were pre-treated with the FPR2 antagonist, WRW4 or water (40 μM) as the vehicle control, or A438079 or DMSO (10 μM) as the vehicle control, for 1 h prior to stimulation with normal or SAA-high HDL for 24 h. One-way ANOVA with Sidak's multiple comparisons test. ****P<0.0001.
HDL ([…] of protein/ml) isolated from plasma from a SAA-high asthmatic (SAA-high HDL) and from a healthy non-asthmatic subject (Normal HDL) were used to stimulate THP-1 monocytes for 24 h. THP-1 monocytes were pre-treated with BAY-11-7082 ([…] (1 μM) or DMSO (10 μM) as the vehicle control for 1 h, as indicated, prior to stimulation with normal or SAA-high HDL for 24 h. One-way ANOVA with Sidak's multiple comparisons test. ****P<0.0001.
HDL (4 μg of protein/ml) isolated from plasma from a SAA-high asthmatic (SAA-high HDL) and from a healthy non-asthmatic subject (Normal HDL) were used to stimulate THP-1 monocytes for 24 h. A. THP-1 monocytes were pre-treated with celecoxib or DMSO (0.01 μM) as the vehicle control for 1 h, as indicated, prior to stimulation with normal or SAA-high HDL for 24 h. One-way ANOVA with Sidak's multiple comparisons test. ****P<0.0001.

[1] = A438079 10 μM, SAA-high HDL 4 μg of protein/ml 24 h

Clc1cccc(-c2nnnn2Cc2cccnc2)c1Cl [A438079]
HDL+SAA1-mediated increases in PTGS2 mRNA (PTGS2 mRNA; A438079 10 μM): attenuated | IL-1β secretion induced by endogenous SAA-high HDL (THP-1 monocytes; [1]): inhibited | IL-6 secretion induced by endogenous SAA-high HDL (THP-1 monocytes; [1]): inhibited | TNF-α secretion induced by endogenous SAA-high HDL (THP-1 monocytes; [1]): inhibited

Cc1ccc(S(=O)(=O)/C=C/C#N)cc1 [BAY 11-7082]
HDL+SAA1-mediated increases in PTGS2 mRNA (PTGS2 mRNA; BAY-11-7082 10 μM): prevented | ability of endogenous SAA-high HDL to induce cytokine secretion (THP-1 monocytes; BAY-11-7082 10 μM): abrogate

NC(=O)Nc1sc(-c2ccc(F)cc2)cc1C(N)=O [TPCA1]
HDL+SAA1-mediated increases in PTGS2 mRNA (PTGS2 mRNA; TPCA-1 1 μM): prevented | ability of endogenous SAA-high HDL to induce cytokine secretion (THP-1 monocytes; TPCA-1 1 μM): abrogate
